Assay: Denaturation temperature Td of treated hair fibres by DSC
Conditions: soaked for 30 minutes in 2% aqueous solution; for Average Td (n = 3): denaturation temperature by DSC, hair switches washed, left to dry; for Change in Td of the treated fibres: in words, relative to Control (water)
Procedure: Virgin dark brown European hair switches of length 25 cm and weight 2 gms, were treated as follows: • Control: After initial washing, soaked for 30 minutes in water • Example 1: After initial washing, soaked for 30 minutes in a 2% aqueous solution of N-α-acetyl-L-lysine • Example A: After initial washing, soaked for 30 minutes in a 2% aqueous solution of L-lysine • Example B: After initial washing, soaked for 30 minutes in a 2% aqueous solution of N-α-acetyl-L-arginine
At the end of the soaking period the switches were left to dry and clippings from a few fibres were used to measure denaturation temperature Td using DSC.

Row | SMILES | Average Td (n = 3) | Change in Td of the treated fibres
1 | CC(=O)N[C@@H](CCCCN)C(=O)O [Example 1, N-α-acetyl-L-lysine] | 153.4 | substantial and significant increase in Td
2 | NCCCC[C@H](N)C(=O)O [Example A, L-lysine] | 148.1 | decrease Td
3 | CC(=O)N[C@@H](CCCNC(=N)N)C(=O)O [Example B, N-α-acetyl-L-arginine] | 148.2 | decrease Td

Source: US20190388320A1, “METHOD OF STRENGTHENING HAIR” (Conopco, Inc. d/b/a UNILEVER, priority 2017, published 2019)
